In PMC8141533, “Structural and biochemical analysis of human ADP-ribosyl-acceptor hydrolase 3 reveals the basis of metal selectivity and different roles for the two magnesium ions” (The Journal of Biological Chemistry, 2021):
Changes are numbered by the printed parent chain. “Also recorded” adds a separate entry of the source.

Assays:
[1] = molecular target: T1, ARH3^WT (Homo sapiens, UniProt Q9NX46); experiment: Isothermal titration calorimetry (ITC) of ADPR binding to ARH3^WT; conditions: for Kd / N (sites) / ΔG / ΔH / −TΔS: 25 °C, pH 7.5
T1 construct: we determined the structure of full-length ARH3 in complex with ADPR and Ca^2+; made in house
T1 sequence (Q9NX46 1-363): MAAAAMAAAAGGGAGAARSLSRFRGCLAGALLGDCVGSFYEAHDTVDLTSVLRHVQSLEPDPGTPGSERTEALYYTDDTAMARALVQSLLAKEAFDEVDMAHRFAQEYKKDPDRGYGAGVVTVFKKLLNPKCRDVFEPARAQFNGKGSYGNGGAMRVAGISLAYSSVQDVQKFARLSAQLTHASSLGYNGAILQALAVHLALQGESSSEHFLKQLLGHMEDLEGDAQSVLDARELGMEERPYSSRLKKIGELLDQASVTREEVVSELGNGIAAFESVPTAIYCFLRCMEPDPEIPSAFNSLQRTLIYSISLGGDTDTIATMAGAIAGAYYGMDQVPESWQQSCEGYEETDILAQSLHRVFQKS
Method: (§1) ITC experiments were performed at 25 °C in a buffer containing 150 mM NaCl, 100 mM Tris at pH 7.5, and 5 mM divalent metals (MgCl2, MnCl2, and CaCl2) or EDTA (Sigma–Aldrich). The WT or mutants of ARH3 were placed in a cell at 50 μM concentration, and ADPR was placed in the injection syringe at 660 μM concentration. Overall, 26 injections (10 μl per injection except for the first sample [5 μl]) were administered with an interval of 5 min between peaks to allow the baseline to be stabilized. […] The obtained plots were fitted with a single-site binding model in the Origin software package (MicroCal, Inc).

[2] = molecular target: T2, ARH3^D314A (Homo sapiens, UniProt Q9NX46, D314A); experiment: Isothermal titration calorimetry (ITC) of ADPR binding to ARH3^D314A
T2 construct: His6 with PreScission protease cleavage site (N); made in house
T2 sequence (Q9NX46 1-363 D314A): T1 sequence (Q9NX46 1-363) with D314A
Method: as §1

[3] = molecular target: T3, ARH3^D77A (Homo sapiens, UniProt Q9NX46, D77A); experiment: Isothermal titration calorimetry (ITC) of ADPR binding to ARH3^D77A
T3 construct: His6 with PreScission protease cleavage site (N); made in house
T3 sequence (Q9NX46 1-363 D77A): T1 sequence (Q9NX46 1-363) with D77A
Method: as §1

[4] = molecular target: T4, ARH3 (Homo sapiens, UniProt Q9NX46); experiment: Gel-based PAR turnover assay (PARylated PARP1C substrate); type: biochemical; conditions: for effect on PAR hydrolysis by ARH3: WT ARH3 2 μM, 5 mM EDTA or Ca^2+, PARylated PARP1C, 1 h, 37 °C
T4 construct: we determined the structure of full-length ARH3 in complex with ADPR and Ca^2+; made in house
T4 sequence (Q9NX46 1-363): T1 sequence (Q9NX46 1-363)
Method: A gel-based PAR-turnover assay was performed to evaluate the enzymatic activity of ARH3^WT, ARH3^D77A, ARH3^D78A, ARH3^D314A, and ARH3^D316A, as described previously ([14], [40]). Briefly, 2 μM of the catalytic domain of human PARP1 (PARP1C; residues 375–1014) was auto-PARylated at 37 °C for 30 min in the presence of 2 μM DBD of PARP1 (residues 1–374), 2 μM double-stranded DNA, and 400 μM β-NAD^+ (Sigma) in a buffer containing 100 mM NaCl, 50 mM Tris (pH 7.5), 10 mM MgCl2, and 2 mM DTT. ARH3 proteins (in the presence of 5 mM EDTA, Mg^2+, or Ca^2+) with final concentrations of 2 μM were mixed with the PARylated PARP1C substrate, followed by incubation for 1 h in 37 °C. Reactions then were stopped by adding 4× SDS-loading dye (Bio-Rad) and visualized by Coomassie blue staining of SDS-polyacrylamide gels.

[5] = ARH3^D314A, 5 mM Mg^2+, 25 °C, pH 7.5
[6] = ARH3^D77A, 5 mM Mg^2+, 25 °C, pH 7.5

## Nc1ncnc2c1ncn2[C@@H]1O[C@H](COP(=O)(O)OP(=O)(O)OC[C@H]2OC(O)[C@H](O)[C@@H]2O)[C@@H](O)[C@H]1O (stereo partly shown) [ADPR, ADP-ribose]
[1]; 5 mM Ca^2+
  Kd: 7.81 ± 0.51 µM
  N (sites): 1.18 ± 0.01 sites
  ΔG: -6.96 kcal/M
  ΔH: -5.71 kcal/M
  −TΔS: -1.25 kcal/M
[1]; 5 mM EDTA (metal-free)
  Kd: 80.7 ± 5.25 µM
[1]; 5 mM EDTA
  N (sites): 0.96 ± 0.08 sites
  ΔG: -5.59 kcal/M
  ΔH: -5.164 kcal/M
  −TΔS: -0.42 kcal/M
[1]; 5 mM Mg^2+
  Kd: 1.42 ± 0.07 µM
  N (sites): 1.12 ± 0.01 sites
  ΔG: -7.98 kcal/M
  ΔH: -9.29 kcal/M
  −TΔS: 1.31 kcal/M
[1]; 5 mM Mn^2+
  Kd: 0.83 ± 0.05 µM
  N (sites): 1.09 ± 0.01 sites
  ΔG: -8.29 kcal/M
  ΔH: -10.57 kcal/M
  −TΔS: 2.28 kcal/M
[1]; KD^Ca versus KD^Mg
  reduction in ADPR-binding affinity with Ca^2+ compared with Mg^2+: about a sixfold reduction
[1]; KD^Mg versus KD^EDTA
  increase in binding affinity with Mg^2+ versus metal-free enzyme (EDTA): approximately 60 fold
[2]; ARH3^D314A versus ARH3^WT, Mg^2+
  decrease in ADPR-binding affinity compared with ARH3^WT: 44 fold
[2]; [5]
  Kd: 62.9 ± 2.9 µM
  N (sites): 0.96 ± 0.04 sites
  ΔG: -5.74 kcal/M
  ΔH: -10.36 kcal/M
  −TΔS: 4.61 kcal/M
[3]; ARH3^D77A versus ARH3^WT, Mg^2+
  increase in ADPR-binding affinity compared with ARH3^WT: 23 fold
[3]; [6]
  Kd: 0.06 ± 0.01 µM
  N (sites): 1.18 ± 0.01 sites
  ΔG: -9.87 kcal/M
  ΔH: -8.50 kcal/M
  −TΔS: -1.37 kcal/M

## [Ca+2].[Cl-].[Cl-] [Ca^2+, CaCl2]
[4]
  effect on PAR hydrolysis by ARH3: inhibit; also recorded: effectively suppresses PAR hydrolysis
[4]; in the presence of Mg2+ and increasing concentrations of Ca2+, 5 mM Ca2+
  Ca2+-dependent inhibition of ARH3 PAR hydrolysis activity: sufficient to effectively inhibit ARH3 activity

## O=C(O)CN(CCN(CC(=O)O)CC(=O)O)CC(=O)O [EDTA]
[4]
  effect on PAR hydrolysis by ARH3: inhibit; also recorded: effectively suppresses PAR hydrolysis
